How the values were obtained:
chickweed [1] = assay: Test Example 4: herbicidal effect by soil treatment (Table 19, symbol P); type: in vivo, common chickweed (Stellaria media)
How it was run: (§1)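 Three weeks of greenhouse growth at 25° C. to 30° C. followed a uniform surface spray of water-diluted emulsion at a predetermined herbicide amount. Seeds had been sown beforehand under about 1.5 cm of sterilized diluvial soil. Grading followed criteria set out in an earlier test.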

barnyard grass [2] = assay: Test Example 5: herbicidal effect by foliage application, plastic box (Table 20, symbol H); type: in vivo, barnyard grass (Echinochloa crus-galli); conditions: foliage application, AAH 320 g/ha
How it was run: (§2)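 Plants sown in sterilized diluvial soil and grown 14 days in a greenhouse at 25° C to 30° C, then sprayed on the foliage with the compound's emulsion diluted in water to a predetermined herbicide amount. Injury to weeds and crops scored three weeks after application on a visual rating scale.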

Japanese bulrush = assay: Test Example 1: herbicidal activity, application before weed generation under submerged conditions (Table 16, symbol B); type: in vivo, Japanese bulrush (Schoenoplectus juncoides)
How it was run: (§3)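 Submerged Wagner pots (alluvial soil, 4 cm water) sown with weed seeds and planted with 2.5-leaf rice seedlings; emulsifiable concentrate diluted in water applied to water surface on sowing day. Held in greenhouse at 25-30 °C; injury scored 0-5 by herbicidal rate after three weeks.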

southern crabgrass [3] = assay: Test Example 4: herbicidal effect by soil treatment (Table 19, symbol F); type: in vivo, southern crabgrass (Digitaria ciliaris)
How it was run: as §1

lambsquarters [4] = assay: Test Example 5: herbicidal effect by foliage application, plastic box (Table 20, symbol O); type: in vivo, lambsquarters (Chenopodium album); conditions: foliage application, AAH 320 g/ha
How it was run: as §2

oval-leafed pondweed = assay: Test Example 1: herbicidal activity, application before weed generation under submerged conditions (Table 16, symbol C); type: in vivo, oval-leafed pondweed (Monochoria vaginalis)
How it was run: as §3

blackgrass = assay: Test Example 5: herbicidal effect by foliage application, plastic box (Table 20, symbol J); type: in vivo, blackgrass (Alopecurus myosuroides); conditions: foliage application, AAH 320 g/ha
How it was run: as §2

green foxtail [5] = assay: Test Example 4: herbicidal effect by soil treatment (Table 19, symbol G); type: in vivo, green foxtail (Setaria viridis)
How it was run: as §1

Italian ryegrass [6] = assay: Test Example 4: herbicidal effect by soil treatment (Table 19, symbol K); type: in vivo, Italian ryegrass (Lolium multiflorum)
How it was run: as §1

barnyard grass [7] = assay: Test Example 4: herbicidal effect by soil treatment (Table 19, symbol H); type: in vivo, barnyard grass (Echinochloa crus-galli)
How it was run: as §1

lambsquarters [8] = assay: Test Example 4: herbicidal effect by soil treatment (Table 19, symbol O); type: in vivo, lambsquarters (Chenopodium album)
How it was run: as §1

Italian ryegrass [9] = assay: Test Example 5: herbicidal effect by foliage application, plastic box (Table 20, symbol K); type: in vivo, Italian ryegrass (Lolium multiflorum); conditions: foliage application, AAH 320 g/ha
How it was run: as §2

rice flat sedge = assay: Test Example 3: herbicidal effect by foliage application, Wagner pot (Table 18, symbol E); type: in vivo, rice flat sedge (Cyperus iria)
How it was run: (§4)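 Plants were sown in alluvial soil held under 0.1–0.5 cm standing water and grown 14 days in a greenhouse at 25–30 °C. An emulsifiable formulation, water-diluted to the set dose, was then sprayed onto the foliage, and effects were scored three weeks later using previously defined criteria.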

Chinese sprangletop = assay: Test Example 3: herbicidal effect by foliage application, Wagner pot (Table 18, symbol D); type: in vivo, chinese sprangletop (Leptochloa chinensis)
How it was run: as §4

late watergrass = assay: Test Example 1: herbicidal activity, application before weed generation under submerged conditions (Table 16, symbol A); type: in vivo, late watergrass (Echinochloa oryzicola)
How it was run: as §3

velvetleaf [10] = assay: Test Example 4: herbicidal effect by soil treatment (Table 19, symbol M); type: in vivo, velvetleaf (Abutilon theophrasti)
How it was run: as §1

velvetleaf [11] = assay: Test Example 5: herbicidal effect by foliage application, plastic box (Table 20, symbol M); type: in vivo, velvetleaf (Abutilon theophrasti); conditions: foliage application, AAH 320 g/ha
How it was run: as §2

redroot pigweed [12] = assay: Test Example 5: herbicidal effect by foliage application, plastic box (Table 20, symbol N); type: in vivo, redroot pigweed (Amaranthus retroflexus); conditions: foliage application, AAH 320 g/ha
How it was run: as §2

redroot pigweed [13] = assay: Test Example 4: herbicidal effect by soil treatment (Table 19, symbol N); type: in vivo, redroot pigweed (Amaranthus retroflexus)
How it was run: as §1

windgrass [14] = assay: Test Example 4: herbicidal effect by soil treatment (Table 19, symbol L); type: in vivo, windgrass (Apera spica-venti)
How it was run: as §1

green foxtail [15] = assay: Test Example 5: herbicidal effect by foliage application, plastic box (Table 20, symbol G); type: in vivo, green foxtail (Setaria viridis); conditions: foliage application, AAH 320 g/ha
How it was run: as §2

wild oat [16] = assay: Test Example 5: herbicidal effect by foliage application, plastic box (Table 20, symbol I); type: in vivo, wild oat (Avena fatua); conditions: foliage application, AAH 320 g/ha
How it was run: as §2

windgrass [17] = assay: Test Example 5: herbicidal effect by foliage application, plastic box (Table 20, symbol L); type: in vivo, windgrass (Apera spica-venti); conditions: foliage application, AAH 320 g/ha
How it was run: as §2

barnyard grass [18] = assay: Test Example 3: herbicidal effect by foliage application, Wagner pot (Table 18, symbol H); type: in vivo, barnyard grass (Echinochloa crus-galli)
How it was run: as §4

persian speedwell [19] = assay: Test Example 5: herbicidal effect by foliage application, plastic box (Table 20, symbol R); type: in vivo, Persian speedwell (Veronica persica); conditions: foliage application, AAH 320 g/ha
How it was run: as §2

chickweed [20] = assay: Test Example 5: herbicidal effect by foliage application, plastic box (Table 20, symbol P); type: in vivo, common chickweed (Stellaria media); conditions: foliage application, AAH 320 g/ha
How it was run: as §2

wild oat [21] = assay: Test Example 4: herbicidal effect by soil treatment (Table 19, symbol I); type: in vivo, wild oat (Avena fatua)
How it was run: as §1

persian speedwell [22] = assay: Test Example 4: herbicidal effect by soil treatment (Table 19, symbol R); type: in vivo, Persian speedwell (Veronica persica)
How it was run: as §1

southern crabgrass [23] = assay: Test Example 5: herbicidal effect by foliage application, plastic box (Table 20, symbol F); type: in vivo, southern crabgrass (Digitaria ciliaris); conditions: foliage application, AAH 320 g/ha
How it was run: as §2

[24] = amount of applied herbicide 320 g/ha
[25] = evaluated three weeks after application

CCCC(=O)Oc1c(C)nn(C)c(=O)c1-c1c(-c2ccccc2OCOC)sc2ccccc12 [1-115]
P: chickweed, herbicidal effect rating (chickweed [1]; AAH 320 g/ha): 0 (Herbicidal rate of 5% or less (almost no effect)) | H: barnyard grass, herbicidal effect (barnyard grass [2]; three weeks after application): 2 (Herbicidal rate of 20% or more and less than 40%) | Herbicidal effect on B: Japanese bulrush (grade 0-5) (Japanese bulrush; 320 g/ha applied herbicide): 0 (Herbicidal rate of 5% or less (almost no effect)) | F: southern crabgrass, herbicidal effect rating (southern crabgrass [3]; AAH 320 g/ha): 0 (Herbicidal rate of 5% or less (almost no effect)) | O: lambsquarters, herbicidal effect (lambsquarters [4]; three weeks after application): 2 (Herbicidal rate of 20% or more and less than 40%) | Herbicidal effect on C: oval-leafed pondweed (grade 0-5) (oval-leafed pondweed; 320 g/ha applied herbicide): 2 (Herbicidal rate of 20% or more and less than 40%) | J: blackgrass, herbicidal effect (blackgrass; three weeks after application): 4 (Herbicidal rate of 70% or more and less than 90%) | G: green foxtail, herbicidal effect rating (green foxtail [5]; AAH 320 g/ha): 0 (Herbicidal rate of 5% or less (almost no effect)) | K: Italian ryegrass, herbicidal effect rating (Italian ryegrass [6]; AAH 320 g/ha): 0 (Herbicidal rate of 5% or less (almost no effect)) | H: barnyard grass, herbicidal effect rating (barnyard grass [7]; AAH 320 g/ha): 2 (Herbicidal rate of 20% or more and less than 40%) | O: lambsquarters, herbicidal effect rating (lambsquarters [8]; AAH 320 g/ha): 0 (Herbicidal rate of 5% or less (almost no effect)) | K: Italian ryegrass, herbicidal effect (Italian ryegrass [9]; three weeks after application): 0 (Herbicidal rate of 5% or less (almost no effect)) | herbicidal effect on E (rice flat sedge), rating 0-5 (rice flat sedge; 320 g/ha): 2 (Herbicidal rate of 20% or more and less than 40%) | herbicidal effect on D (Chinese sprangletop), rating 0-5 (Chinese sprangletop; 320 g/ha): 2 (Herbicidal rate of 20% or more and less than 40%) | Herbicidal effect on A: late watergrass (grade 0-5) (late watergrass; 320 g/ha applied herbicide): 2 (Herbicidal rate of 20% or more and less than 40%) | M: velvetleaf, herbicidal effect rating (velvetleaf [10]; AAH 320 g/ha): 0 (Herbicidal rate of 5% or less (almost no effect)) | M: velvetleaf, herbicidal effect (velvetleaf [11]; three weeks after application): 3 (Herbicidal rate of 40% or more and less than 70%) | N: redroot pigweed, herbicidal effect (redroot pigweed [12]; three weeks after application): 5 (Herbicidal rate of 90% or more (almost completely withered)) | N: redroot pigweed, herbicidal effect rating (redroot pigweed [13]; AAH 320 g/ha): 3 (Herbicidal rate of 40% or more and less than 70%) | L: windgrass, herbicidal effect rating (windgrass [14]; AAH 320 g/ha): 0 (Herbicidal rate of 5% or less (almost no effect)) | G: green foxtail, herbicidal effect (green foxtail [15]; three weeks after application): 4 (Herbicidal rate of 70% or more and less than 90%) | I: wild oat, herbicidal effect (wild oat [16]; three weeks after application): 2 (Herbicidal rate of 20% or more and less than 40%) | L: windgrass, herbicidal effect (windgrass [17]; three weeks after application): 4 (Herbicidal rate of 70% or more and less than 90%) | herbicidal effect on H (barnyard grass), rating 0-5 (barnyard grass [18]; 320 g/ha): 4 (Herbicidal rate of 70% or more and less than 90%) | R: persian speedwell, herbicidal effect (persian speedwell [19]; three weeks after application): 2 (Herbicidal rate of 20% or more and less than 40%) | P: chickweed, herbicidal effect (chickweed [20]; three weeks after application): 5 (Herbicidal rate of 90% or more (almost completely withered)) | I: wild oat, herbicidal effect rating (wild oat [21]; AAH 320 g/ha): 0 (Herbicidal rate of 5% or less (almost no effect)) | R: persian speedwell, herbicidal effect rating (persian speedwell [22]; AAH 320 g/ha): 0 (Herbicidal rate of 5% or less (almost no effect)) | F: southern crabgrass, herbicidal effect (southern crabgrass [23]; three weeks after application): 4 (Herbicidal rate of 70% or more and less than 90%)

CCCC(=O)Oc1c(C)nn(C)c(=O)c1-c1c(-c2ccc3c(c2)OC(F)(F)O3)sc2ccc(F)cc12 [2-393]
herbicidal effect, P: chickweed (chickweed [1]; [24]): 4 (Herbicidal rate of 70% or more and less than 90%) | H: barnyard grass, herbicidal effect (criteria 0-5) (barnyard grass [2]; [25]): 5 (Herbicidal rate of 90% or more (almost completely withered)) | Herbicidal effect, B: Japanese bulrush (Japanese bulrush; [24]): 0 (Herbicidal rate of 5% or less (almost no effect)) | herbicidal effect, F: southern crabgrass (southern crabgrass [3]; [24]): 0 (Herbicidal rate of 5% or less (almost no effect)) | O: lambsquarters, herbicidal effect (criteria 0-5) (lambsquarters [4]; [25]): 4 (Herbicidal rate of 70% or more and less than 90%) | Herbicidal effect, C: oval-leafed pondweed (oval-leafed pondweed; [24]): 0 (Herbicidal rate of 5% or less (almost no effect)) | J: blackgrass, herbicidal effect (criteria 0-5) (blackgrass; [25]): 1 (Herbicidal rate of 5% or more and less than 20%) | herbicidal effect, G: green foxtail (green foxtail [5]; [24]): 0 (Herbicidal rate of 5% or less (almost no effect)) | herbicidal effect, K: Italian ryegrass (Italian ryegrass [6]; [24]): 4 (Herbicidal rate of 70% or more and less than 90%) | herbicidal effect, H: barnyard grass (barnyard grass [7]; [24]): 0 (Herbicidal rate of 5% or less (almost no effect)) | herbicidal effect, O: lambsquarters (lambsquarters [8]; [24]): 0 (Herbicidal rate of 5% or less (almost no effect)) | K: Italian ryegrass, herbicidal effect (criteria 0-5) (Italian ryegrass [9]; [25]): 4 (Herbicidal rate of 70% or more and less than 90%) | herbicidal effect on E: rice flat sedge (rice flat sedge; [24]): 3 (Herbicidal rate of 40% or more and less than 70%) | herbicidal effect on D: Chinese sprangletop (Chinese sprangletop; [24]): 1 (Herbicidal rate of 5% or more and less than 20%) | Herbicidal effect, A: late watergrass (late watergrass; [24]): 3 (Herbicidal rate of 40% or more and less than 70%) | herbicidal effect, M: velvetleaf (velvetleaf [10]; [24]): 0 (Herbicidal rate of 5% or less (almost no effect)) | M: velvetleaf, herbicidal effect (criteria 0-5) (velvetleaf [11]; [25]): 4 (Herbicidal rate of 70% or more and less than 90%) | N: redroot pigweed, herbicidal effect (criteria 0-5) (redroot pigweed [12]; [25]): 4 (Herbicidal rate of 70% or more and less than 90%) | herbicidal effect, N: redroot pigweed (redroot pigweed [13]; [24]): 0 (Herbicidal rate of 5% or less (almost no effect)) | herbicidal effect, L: windgrass (windgrass [14]; [24]): 5 (Herbicidal rate of 90% or more (almost completely withered)) | G: green foxtail, herbicidal effect (criteria 0-5) (green foxtail [15]; [25]): 4 (Herbicidal rate of 70% or more and less than 90%) | I: wild oat, herbicidal effect (criteria 0-5) (wild oat [16]; [25]): 4 (Herbicidal rate of 70% or more and less than 90%) | L: windgrass, herbicidal effect (criteria 0-5) (windgrass [17]; [25]): 5 (Herbicidal rate of 90% or more (almost completely withered)) | herbicidal effect on H: barnyard grass (barnyard grass [18]; [24]): 5 (Herbicidal rate of 90% or more (almost completely withered)) | R: persian speedwell, herbicidal effect (criteria 0-5) (persian speedwell [19]; [25]): 5 (Herbicidal rate of 90% or more (almost completely withered)) | P: chickweed, herbicidal effect (criteria 0-5) (chickweed [20]; [25]): 5 (Herbicidal rate of 90% or more (almost completely withered)) | herbicidal effect, I: wild oat (wild oat [21]; [24]): 0 (Herbicidal rate of 5% or less (almost no effect)) | herbicidal effect, R: persian speedwell (persian speedwell [22]; [24]): 4 (Herbicidal rate of 70% or more and less than 90%) | F: southern crabgrass, herbicidal effect (criteria 0-5) (southern crabgrass [23]; [25]): 1 (Herbicidal rate of 5% or more and less than 20%)

Reference: patent publication US20230085307A1, “PYRIDAZINONE COMPOUND AND HERBICIDE” (NISSAN CHEMICAL CORPORATION, priority 2019, published 2023)
